Assay results from ChEMBL document CHEMBL4765295, “Synthesis, pharmacological profile and 2D-QSAR studies of curcumin-amino acid conjugates as potential drug candidates” (Eur J Med Chem, 2020).
“And” between values parts separate entries of the source, which are not always exact repeats. Identical values can stand only once.

Tests used:
[1] = tested on: Rattus norvegicus; experiment: Anti-inflammatory activity in Wistar rat assessed as inhibition of carrageenan-induced paw edema at 10 mg/kg, ip pretreated for 1 hr followed by carrageenan challenge and measured after 4 hr relative to indomethacin; format: functional; conditions: time 5 hrs
[2] = tested on: Salmonella typhimurium; experiment: Antibacterial activity against Salmonella typhimurium ATCC 19430 incubated for 18 hrs by agar dilution assay; format: functional, Salmonella enterica subsp. enterica serovar Typhimurium; conditions: Salmonella enterica
[3] = tested on: Candida albicans; experiment: Antifungal activity against Candida albicans incubated for 18 to 24 hrs by CLSI method; format: functional; conditions: time 18-24 hrs
[4] = tested on: Rattus norvegicus; experiment: Anti-inflammatory activity in Wistar rat assessed as inhibition of carrageenan-induced paw edema at 10 mg/kg, ip pretreated for 1 hr followed by carrageenan challenge and measured after 1 hr relative to control (reference value: 0.00 +/-0.02 %); format: functional; conditions: time 2 hrs
[5] = tested on: Peritoneal macrophage; experiment: Antiinflammatory activity in […] mouse Peritoneal macrophages assessed as inhibition of LPS-induced NO production at 10 uM preincubated for 1 hr followed by LPS stimulation measured after 24 hrs by Griess method relative to control (reference value: 0.0 %); format: functional; parameters: scale not given: the % may be the effect or the level left; conditions: time 25 hrs
[6] = tested on: Rattus norvegicus; experiment: Anti-inflammatory activity in Wistar rat assessed as inhibition of carrageenan-induced paw edema at 10 mg/kg, ip pretreated for 1 hr followed by carrageenan challenge and measured after 24 hr relative to control (reference value: 0.00 +/-0.3 %); format: functional; conditions: time 25 hrs
[7] = tested on: Rattus norvegicus; experiment: Antiinflammatory activity in Wistar rat model of carrageenan-induced paw edema assessed as reduction in thickness of paw edema at 10 mg/kg, ip pretreated for 1 hr followed by carrageenan challenge and measured after 24 hrs (reference value: 0.83 +/-0.08 mm); format: functional; conditions: time 25 hrs
[8] = tested on: Rattus norvegicus; experiment: Anti-inflammatory activity in Wistar rat assessed as inhibition of carrageenan-induced paw edema at 10 mg/kg, ip pretreated for 1 hr followed by carrageenan challenge and measured after 3 hr relative to control (reference value: 0.00 +/-0.1 %); format: functional; conditions: time 4 hrs
[9] = tested on: Rattus norvegicus; experiment: Antiinflammatory activity in Wistar rat model of carrageenan-induced paw edema assessed as reduction in thickness of paw edema at 10 mg/kg, ip pretreated for 1 hr followed by carrageenan challenge and measured after 4 hrs (reference value: 1.40 +/-0.10 mm); format: functional; conditions: time 5 hrs
[10] = tested on: Rattus norvegicus; experiment: Anti-inflammatory activity in Wistar rat assessed as inhibition of carrageenan-induced paw edema at 10 mg/kg, ip pretreated for 1 hr followed by carrageenan challenge and measured after 4 hr relative to control (reference value: 0.00 +/-0.4 %); format: functional; conditions: time 5 hrs
[11] = tested on: Pseudomonas aeruginosa; experiment: Antibacterial activity against Pseudomonas aeruginosa ATCC 27853 incubated for 18 hrs by agar dilution assay; format: functional
[12] = tested on: Rattus norvegicus; experiment: Antiinflammatory activity in Wistar rat model of carrageenan-induced paw edema assessed as reduction in thickness of paw edema at 10 mg/kg, ip pretreated for 1 hr followed by carrageenan challenge and measured after 1 hr (reference value: 2.41 +/-0.05 mm); format: functional; conditions: time 1 hr after carrageenan
[13] = tested on: Staphylococcus aureus; experiment: Antibacterial activity against Staphylococcus aureus ATCC 25923 incubated for 18 hrs by agar dilution method; format: functional
[14] = tested on: Splenocyte; experiment: Immunomodulatory activity in Swiss albino mouse splenocytes assessed as cell viability at 10 uM by measuring stimulation index incubated for 72 hrs in presence of mitogenic stimulus phytohaemagglutinin by MTT assay (reference value: 1.00 +/- 0.24); format: functional
[15] = tested on: Rattus norvegicus; experiment: Anti-inflammatory activity in Wistar rat assessed as inhibition of carrageenan-induced paw edema at 10 mg/kg, ip pretreated for 1 hr followed by carrageenan challenge and measured after 2 hr relative to control (reference value: 0.00 +/-0.03 %); format: functional; conditions: time 3 hrs
[16] = tested on: Streptococcus pyogenes; experiment: Antibacterial activity against Streptococcus pyogenes ATCC 19615 incubated for 18 hrs by agar dilution method; format: functional
[17] = tested on: Peritoneal macrophage; experiment: Antiinflammatory activity in […] mouse Peritoneal macrophages assessed as reduction in LPS-induced NO production by measuring reduction in stimulation index at 10 uM preincubated for 1 hr followed by LPS stimulation measured after 24 hrs by Griess method (reference value: 27.31 +/- 2.56 uM); format: functional; conditions: time 25 hrs
[18] = tested on: Splenocyte; experiment: Immunomodulatory activity in Swiss albino mouse splenocytes assessed as cell viability at 10 uM by measuring inhibition of stimulation index incubated for 72 hrs in presence of mitogenic stimulus phytohaemagglutinin by MTT assay relative to indomethacin; format: functional; conditions: read-out: Activity
[19] = tested on: Rattus norvegicus; experiment: Antiinflammatory activity in Wistar rat model of carrageenan-induced paw edema assessed as reduction in thickness of paw edema at 10 mg/kg, ip pretreated for 1 hr followed by carrageenan challenge and measured after 3 hrs (reference value: 1.79 +/-0.07 mm); format: functional; conditions: time 4 hrs
[20] = tested on: Rattus norvegicus; experiment: Antiinflammatory activity in Wistar rat model of carrageenan-induced paw edema assessed as reduction in thickness of paw edema at 10 mg/kg, ip pretreated for 1 hr followed by carrageenan challenge and measured after 2 hrs (reference value: 2.06 +/-0.09 mm); format: functional; conditions: time 3 hrs

Compound | inhibition in vivo at 10 mg/kg [1] [%] | MIC [2] | MIC [3] | inhibition in vivo at 10 mg/kg [4] [%] | Activity [5] [%] | inhibition in vivo at 10 mg/kg [6] [%] | Activity [7] [mm] | inhibition in vivo at 10 mg/kg [8] [%] | Activity [9] [mm] | inhibition in vivo at 10 mg/kg [10] [%] | MIC [11] | Activity [12] [mm] | MIC [13] | Activity_index [14] | inhibition in vivo at 10 mg/kg [15] [%] | MIC [16] | Activity [17] [µM] | viability at 10 µM [18] [%] | Activity [19] [mm] | Activity [20] [mm]
COc1cc(/C=C/C(=O)/C=C(O)/C=C/c2ccc(OC(=O)[C@@H](NC(=O)OCC3c4ccccc4-c4ccccc43)C(C)C)c(OC)c2)ccc1OC(=O)[C@@H](NC(=O)OCC1c2ccccc2-c2ccccc21)C(C)C | 61 | 0.5 µg/mL and 0.494 µM | 0.5 µg/mL and 0.494 µM | 22 | 12.46 | 47 | 0.44 | 50 | 0.66 | 53 | 0.5 µg/mL and 0.494 µM | 1.88 | 0.25 µg/mL and 0.247 µM | 2.55 | 49 | 0.5 µg/mL and 0.494 µM | 23.91 | 47.5 | 0.9 | 1.05
COc1cc(/C=C/C(=O)/C=C(O)/C=C/c2ccc(OC(=O)[C@H](Cc3ccccc3)NC(=O)OCC3c4ccccc4-c4ccccc43)c(OC)c2)ccc1OC(=O)[C@H](Cc1ccccc1)NC(=O)OCC1c2ccccc2-c2ccccc21 | 69 | 0.25 µg/mL and 0.226 µM | 0.5 µg/mL and 0.452 µM | 10 | 31.01 | 5 | 0.79 | 54 | 0.56 | 60 | 2 µg/mL and 1.81 µM | 2.17 | 0.25 µg/mL and 0.226 µM | 1.78 | 41 | 0.125 µg/mL and 0.113 µM | 18.84 | 68.1 | 0.82 | 1.22
COc1cc(/C=C/C(=O)/C=C(O)/C=C/c2ccc(OC(=O)[C@H](Cc3c[nH]c4ccccc34)NC(=O)OCc3ccccc3)c(OC)c2)ccc1OC(=O)[C@H](Cc1c[nH]c2ccccc12)NC(=O)OCc1ccccc1 | 14 | 0.125 µg/mL and 0.124 µM | 1 µg/mL and 0.991 µM | 37 | 11.08 | 1 | 0.82 | 24 | 1.23 | 12 | 0.25 µg/mL and 0.248 µM | 1.52 | 0.125 µg/mL and 0.124 µM | 2.6 | 28 | 0.5 µg/mL and 0.496 µM | 24.28 | 46.5 | 1.36 | 1.48
COc1cc(/C=C/C(=O)/C=C(O)/C=C/c2ccc(OC(=O)[C@H](C)NC(=O)OCC3c4ccccc4-c4ccccc43)c(OC)c2)ccc1OC(=O)[C@H](C)NC(=O)OCC1c2ccccc2-c2ccccc21 | 64 | 0.25 µg/mL and 0.262 µM | 1 µg/mL and 1.05 µM | 12 | 20.22 | 51 | 0.41 | 43 | 0.62 | 56 | 0.25 µg/mL and 0.262 µM | 2.12 | 0.5 µg/mL and 0.524 µM | 2.22 | 23 | 0.5 µg/mL and 0.524 µM | 21.79 | 54.4 | 1.02 | 1.59
